According to US9527847B2, “Treatment of lupus, fibrotic conditions, and inflammatory myopathies and other disorders using PI3 kinase inhibitors” (INFINITY PHARMACEUTICALS, INC., priority 2012, dated 2016):
“Also recorded” adds a separate entry of the source.

What was measured:
[1] = system: PI3K-δ specific basophil activation; experiment: Anti-fCER1 BAT (delta), basophil activation in human whole blood; assay type: cell-based; conditions: Table 5
B cell proliferation = B cell proliferation EC50 (Table 3); assay type: cell-based; conditions: in vitro
PI3K-δ = PI3K-δ (Homo sapiens, UniProt O00329); experiment: One exemplary assay, PI3K-δ activity; assay type: biochemical; conditions: overall, several assays
NZBWF1/J mice = experiment: Murine NZB/W F1 lupus model; assay type: in vivo, mouse; conditions: vs vehicle; for Glomerulonephritis score reduction: kidney histopathology; for Plasma anti-dsDNA IgG levels: days 49, 98, 140 (age 30, 37, 43 wk)
From the text: Female NZBWF1/J mice (n=60) that were 8 weeks old on arrival and weighed approximately 35-51 grams (mean 42 g) at enrollment (mouse age approx. 23 weeks) were obtained from The Jackson Laboratory, Bar Harbor, Me. (stock number 100008). Animals were identified by a distinct number of ink marks at the base of the tail delineating animal number. After enrollment, all cages were labeled with protocol number, group number, and animal numbers.
Mice were terminated at age 43 weeks (day 140).
All dose solutions were prepared to deliver in 10 ml/kg (0.3 ml/30 g mouse).
Body weights were measured and recorded prior to study initiation for randomization, on the first day of dosing prior to dosing, and weekly throughout the study. Body weights were also recorded at scheduled termination points and as needed if test subjects appeared to decrease in weight by visual inspection. The animals were observed daily for significant clinical signs, morbidity and mortality.
Urine from each animal was tested weekly (beginning at mouse age 23 weeks) for proteinuria using Clinitech Multistick test strips (Bayer).
At necropsy, animals were anesthetized with isoflorane and bled via cardiac puncture for serum (for clinical chemistry analysis) and plasma (for Anti-dsDNA ELISA and PK). Terminal urine was collected and assessed. Spleens and kidneys (paired) were collected, weighed, and placed in 10% NBF. Serum obtained at necropsy was sent to Antech Diagnostics for analysis. Terminal plasma samples were split with half being used for Anti-dsDNA ELISA and the other half being shipped to the sponsor.
Anti-dsDNA IgG analysis was performed on days 0, 49, 98, and 140 (mouse age 23, 30, 37, and 43 weeks). Anti-dsDNA IgG levels were determined using an Anti-dsDNA IgG ELISA Kit (Alpha Diagnostic, kit #5120, lot #90903K4) following manufacturer's instructions.
Blood samples for clinical chemistry evaluation were collected at termination via cardiac puncture from Isoflurane anesthetized animals into serum separator microtainer tubes. Serum was sent to Antech Diagnostics for analysis.
The following parameters were measured: Albumin (ALB), Albumin: Globulin ratio (A/G), Alkaline phosphatase (ALK), Alanine aminotransferase (ALT), Aspartate aminotransferase (AST), Calcium (CA), Magnesium (Mg), Phosphorous (P), Globulin (GLOB), Electrolytes (Sodium (Na), Potassium (K), Chloride (Cl)), Gamma glutamyltransferase (GGT), Total bilirubin (TBILI), Amylase (AMY), Lipase (LIP), Osmolality, Triglycerides (TRIG), Total cholesterol (CHOL), Urea nitrogen (BUN), Creatinine (CREAT), Glucose (GLU), Total protein (TP), and Creatinine kinase (CPK).
Histopathologic evaluation was performed on kidneys. Kidneys from all surviving animals were examined microscopically by a board certified veterinary pathologist and observations were entered into a computer-assisted data retrieval system. Kidney sections were stained with Masson's Trichrome, or Hematoxylin and Eosin. To maintain blinding of the analysis, slides were labeled with the animal number with no reference to treatment group.
Kidneys were scored according to the following system (developed by Chan O, Madaio M P, Shlomchik M J. The roles of B cells in MRL/lpr murine lupus. Annals New York Academy of Sciences, 1997; 815:75-82), modified to suit the lesion severity.
• 0=Normal. • 1=Focal or multifocal, minimal to mild, early proliferative. • 2=Multifocal mild to moderate or mild diffuse proliferative. • 3=Diffuse moderate proliferative with or without multifocal severe areas. • 4=Marked diffuse proliferative, with crescents/sclerosis, multifocal protein casts present. • 5=Severe diffuse proliferative, with crescents/sclerosis, diffuse protein casts present. […]

[2] = system: Murine B-cell proliferation; experiment: Murine B-cell proliferation; assay type: cell-based; conditions: Mus musculus
[3] = system: TLR9 (CPG-A induced cytokines); experiment: CPG-A induced cytokine production in PBMCs; assay type: cell-based, human
Experimental: Human PBMCs were stimulated with CPG-A. CPG-A selectively activates PDCs, inducing IFN-α production via TLR9. IFN-α is a PDC cell selective readout. Primary human PBMCs from two normal human donors were used as a source of PDC cells. 200 K cells per well were used. […] Then the cells were treated with the specified concentration of CPG-A for 16 hours. RPMI-5% serum was employed.
(§1) These experiments were conducted using PBMCs.

R848 induced cytokines = experiment: R848 induced cytokine production in PBMCs; assay type: cell-based, human
Experimental: as §1

[4] = system: Human B-cell proliferation; experiment: Human B-cell proliferation; assay type: cell-based
[5] = serum at termination, Compound 292 (1, 5, 10 mg/kg), Dex 2 mg/kg

Chain of PI3K-δ (O00329 whole entry, species assumed): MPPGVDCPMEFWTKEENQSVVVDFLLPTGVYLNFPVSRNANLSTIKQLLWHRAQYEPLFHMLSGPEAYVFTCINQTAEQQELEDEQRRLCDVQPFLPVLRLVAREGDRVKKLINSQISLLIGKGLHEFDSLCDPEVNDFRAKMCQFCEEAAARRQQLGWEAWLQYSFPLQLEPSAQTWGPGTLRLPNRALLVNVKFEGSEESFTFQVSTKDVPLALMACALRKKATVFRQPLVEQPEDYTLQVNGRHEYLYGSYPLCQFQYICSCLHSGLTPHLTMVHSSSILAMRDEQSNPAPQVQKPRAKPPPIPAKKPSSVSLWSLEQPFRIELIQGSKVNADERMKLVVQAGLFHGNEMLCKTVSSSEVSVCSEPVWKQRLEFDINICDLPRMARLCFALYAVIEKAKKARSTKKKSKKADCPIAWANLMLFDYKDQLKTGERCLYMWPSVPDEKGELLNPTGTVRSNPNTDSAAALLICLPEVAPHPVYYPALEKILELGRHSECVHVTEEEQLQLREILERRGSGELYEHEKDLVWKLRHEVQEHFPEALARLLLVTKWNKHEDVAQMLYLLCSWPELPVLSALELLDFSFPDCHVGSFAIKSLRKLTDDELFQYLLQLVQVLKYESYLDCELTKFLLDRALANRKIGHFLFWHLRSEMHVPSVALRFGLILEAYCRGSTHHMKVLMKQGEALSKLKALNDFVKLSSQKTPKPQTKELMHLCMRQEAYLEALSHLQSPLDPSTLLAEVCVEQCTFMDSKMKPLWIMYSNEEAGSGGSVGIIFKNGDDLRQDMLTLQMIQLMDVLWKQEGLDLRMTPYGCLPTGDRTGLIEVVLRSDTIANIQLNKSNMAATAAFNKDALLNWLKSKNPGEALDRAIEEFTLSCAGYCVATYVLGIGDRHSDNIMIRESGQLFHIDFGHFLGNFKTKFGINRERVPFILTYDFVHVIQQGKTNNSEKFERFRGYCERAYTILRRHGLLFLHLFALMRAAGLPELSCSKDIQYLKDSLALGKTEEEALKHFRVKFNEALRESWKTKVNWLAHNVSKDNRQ
Chain of PI3K-δ (P27986 whole entry partner, species assumed): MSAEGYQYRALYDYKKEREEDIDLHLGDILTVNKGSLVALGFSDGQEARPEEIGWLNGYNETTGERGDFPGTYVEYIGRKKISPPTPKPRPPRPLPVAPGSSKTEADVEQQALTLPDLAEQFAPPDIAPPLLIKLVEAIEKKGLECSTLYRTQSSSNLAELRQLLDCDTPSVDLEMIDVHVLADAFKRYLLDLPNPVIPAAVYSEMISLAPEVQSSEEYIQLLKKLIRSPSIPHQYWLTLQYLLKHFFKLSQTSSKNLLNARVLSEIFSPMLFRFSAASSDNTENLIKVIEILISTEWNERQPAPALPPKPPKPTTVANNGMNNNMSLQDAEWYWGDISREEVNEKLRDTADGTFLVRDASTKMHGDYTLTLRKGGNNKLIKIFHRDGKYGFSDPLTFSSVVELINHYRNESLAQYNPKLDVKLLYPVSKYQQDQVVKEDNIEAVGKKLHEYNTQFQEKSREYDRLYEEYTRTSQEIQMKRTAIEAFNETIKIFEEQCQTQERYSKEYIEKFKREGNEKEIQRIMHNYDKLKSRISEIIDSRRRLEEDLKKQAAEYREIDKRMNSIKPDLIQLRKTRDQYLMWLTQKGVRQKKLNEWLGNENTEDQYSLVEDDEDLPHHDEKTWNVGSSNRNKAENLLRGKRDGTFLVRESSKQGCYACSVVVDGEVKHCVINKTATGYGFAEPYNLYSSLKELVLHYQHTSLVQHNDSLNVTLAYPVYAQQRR

C[C@H](Nc1ncnc2[nH]cnc12)c1cc2cccc(Cl)c2c(=O)n1-c1ccccc1 [Compound 292]
EC50 [1]: 78 nM | EC50 (B cell proliferation): < 100 nM | PI3K-δ inhibited at lower dose compared to PI3K-γ, PI3K-β or PI3K-α (PI3K-δ): at least 10 fold | Glomerulonephritis score reduction (NZBWF1/J mice; 1 mg/kg PO QD): 68% | Urine protein levels (NZBWF1/J mice; 1 mg/kg PO QD, p<0.05 at mouse age 43 wk): significantly reduced | Perivascular inflammation score reduction (NZBWF1/J mice; 1 mg/kg PO QD): 79% | Protein cast severity reduction (NZBWF1/J mice; 1 mg/kg PO QD): 100% | Spleen weight reduction (NZBWF1/J mice; 1 mg/kg PO QD): 39% | Summed histopathology scores reduction (NZBWF1/J mice; 1 mg/kg PO QD): 67% | Plasma anti-dsDNA IgG levels (NZBWF1/J mice; 5 mg/kg PO QD): significantly reduced | Glomerulonephritis score reduction (NZBWF1/J mice; 5 mg/kg PO QD): 89% | Urine protein levels (NZBWF1/J mice; 5 mg/kg PO QD, p<0.05 at mouse age 43 wk): significantly reduced | Interstitial nephritis score reduction (NZBWF1/J mice; 5 mg/kg PO QD): 54% | Perivascular inflammation score reduction (NZBWF1/J mice; 5 mg/kg PO QD): 90% | Protein cast severity reduction (NZBWF1/J mice; 5 mg/kg PO QD): 100% | Spleen weight reduction (NZBWF1/J mice; 5 mg/kg PO QD): 54% | Summed histopathology scores reduction (NZBWF1/J mice; 5 mg/kg PO QD): 81% | Plasma anti-dsDNA IgG levels (NZBWF1/J mice; 10 mg/kg PO QD): significantly reduced | Glomerulonephritis score reduction (NZBWF1/J mice; 10 mg/kg PO QD): 100% | Urine protein levels (NZBWF1/J mice; 10 mg/kg PO QD, p<0.05 at mouse age 42-43 wk): significantly reduced | Interstitial nephritis score reduction (NZBWF1/J mice; 10 mg/kg PO QD): 67% | Perivascular inflammation score reduction (NZBWF1/J mice; 10 mg/kg PO QD): 100% | Protein cast severity reduction (NZBWF1/J mice; 10 mg/kg PO QD): 100% | Spleen weight reduction (NZBWF1/J mice; 10 mg/kg PO QD): 55% | Summed histopathology scores reduction (NZBWF1/J mice; 10 mg/kg PO QD): 91% | Body weight loss (percent change from baseline) (NZBWF1/J mice; 1, 5 or 10 mg/kg PO QD 20 wk, over time): did not differ significantly | Kidney weight (NZBWF1/J mice; 1, 5 or 10 mg/kg PO QD): did not differ significantly | % of animals with proteinuria (urine protein levels >300 mg/dl) (NZBWF1/J mice; all doses (1, 5, or 10 mg/kg), animal age 43 weeks): significantly reduced | Sodium (Na) (NZBWF1/J mice; serum at termination, Compound 292 1 mg/kg): significantly increased | Amylase (AMY) (NZBWF1/J mice; serum at termination, Compound 292 5 mg/kg, Dex 2 mg/kg): significantly reduced | Magnesium (Mg) (NZBWF1/J mice; serum at termination, Compound 292 10 mg/kg, Dex 2 mg/kg): significantly increased | Aspartate aminotransferase (AST) (NZBWF1/J mice; serum at termination, Compound 292 (1, 5, 10 mg/kg)): significantly reduced | Albumin (ALB) (NZBWF1/J mice; [5]): significantly increased | Blood urea nitrogen (BUN) (NZBWF1/J mice; [5]): significantly reduced | Calcium (CA) (NZBWF1/J mice; [5]): significantly increased | Creatine kinase (CPK) (NZBWF1/J mice; [5]): significantly reduced | Globulin (GLOB) (NZBWF1/J mice; [5]): significantly reduced | Triglycerides (TRIG) (NZBWF1/J mice; [5]): significantly reduced | EC50 [2]: 0.5 nM | CPG-A induced IFN-α production [3]: potently inhibited; also recorded: blocked | CPG-A induced IL-6 production [3]: Inhibited | CPG-A induced IL-8 production [3]: Inhibited | CPG-A induced TNF-α production [3]: Inhibited | R848 induced IFN-α (R848 induced cytokines): did not detectably affect | R848 induced IL-1 (R848 induced cytokines): slightly inhibited | R848 induced IL-6 (R848 induced cytokines): did not detectably affect | R848 induced IL-8 (R848 induced cytokines): did not detectably affect | R848 induced TNF-α (R848 induced cytokines): did not detectably affect | EC50 [4]: 0.5 nM
